# Where “and” joins values, the source holds several entries; their conditions need not be identical. Identical values can stand only once.
# Experiment: Anticancer human tumor 997537-175-T-J1-PDC patient-derived colon adenocarcinoma cell line growth inhibition [POLQ]
# Settings: 997537-175-T-J1-PDC complex spheroid viability, combination with POLQ inhibitors; for viability, T/C: stronger effect = lower value
# Procedure: Multicellular complex tumor spheroid response to Polymerase (POL) inhibitors (novobiocin, ART-558, RP6685) in combination with a variety of drugs and investigational agents in selected tumor cell lines
# The POL inhibitors (novobiocin, ART-558, and RP6685) were evaluated both individually and in combination with standard of care and investigational anticancer small molecules within a complex spheroid model of solid tumors. . Complex spheroids include a stromal component modeled by human endothelial cells (HUVEC) and fibroblasts modeled by human mesenchymal stem cells (MSCs). The concentration ranges selected for each drug and investigational agent were based upon clinically achievable concentrations if the clinical Cmax of the agent was known.
# Compounds. The drugs and investigational agents: novobiocin (NSC847541), ART-558 (NSC835418), RP-6685 (NSC848927), peposertib (NSC802822), ceralasertib (NSC780249), elimusertib (NSC800525), camonsertib (NSC841442), AZD-1390 (NSC803789), olaparib (NSC753686), talazoparib (NSC767125), rucaparib (NSC756644), sotorasib (NSC818433), MRTX-1133 (NSC836407), SN-38 (NSC673596), topotecan (NSC609699), epotoside (NSC141540), doxorubicin (NSC123127), gemcitabine (NSC613327), 5-fluorouracil (NSC19893), paclitaxel (NSC125973), vemurafenib (NSC761431), MSA-2 (NSC828583), SN-011 (NSC837082), adavosertib (NSC754352), prexasertib (NSC758257), carboplatin (NSC241240) and oxaliplatin (NSC266046), were obtained from the National Cancer Institute (NCI) Developmental Therapeutics Program Chemical Repository (21). The FDA-approved anticancer drug set is available from the Developmental Therapeutics Program at https://dtp.cancer.gov/organization/dscb/obtaining/. […] The stock solutions were prepared in dimethyl sulfoxide (DMSO, Sigma-Aldrich, St. Louis, MO, cat. D2650), except for the platinum compounds which were prepared in saline (Quality Biological, Gaithersburg, MD, cat. 114-055-101), at 800-fold the tested concentration and stored at -70 degrees C prior to their use. All drugs and investigational agents were tested over a range starting from a high concentration at or near the clinical Cmax and decreasing in half-log increments. If the clinical Cmax for an agent had not been determined, the highest concentration tested was 10 microM, except for SN-38, which was tested at a high concentration of 1 microM.
# Cell Culture. All cells were maintained in an incubator at 37 degrees C and 5% CO2 with 95% humidity. The PDC lines were cultured according to standard operating procedures established by the NCI PDMR (https://pdmr.cancer.gov). Table 3 of the manuscript, lists the cell lines along with the number of the three cell types plated to form the mct-spheroids and media for tumor cell growth. After thawing, all PDC lines, except 997537-175-T-J1-PDC and 415267-285-R-J2-PDC, were cultured in Matrigel-coated flasks prepared with a working solution of 1X Ham's F-12 nutrient mix, without supplementation (Thermo Fisher Scientific, cat. 11765054), 100 U/mL penicillin-streptomycin (Thermo Fisher Scientific, cat. 15140122), and 2.5% Matrigel (Corning Inc., Corning, NY, cat. 354248) for the first three passages. The two PDC lines 997537-175-T-J1-PDC and 415267-285-R-J2-PDC were cultured on uncoated flasks. The 857933-349-R-J2-PDC line was cultured in 6C/Colon 1B media containing advanced DMEM/F-12 (Thermo Fisher Scientific, cat. 12634028), 10 mM HEPES (Thermo Fisher Scientific, cat. 15630080), 1X GlutaMAX supplement (Thermo Fisher Scientific, cat. 35050061), 0.1 mg/mL primocin (InvivoGen, San Diego, CA, cat. ant-pm-2), 10% defined fetal bovine serum, heat inactivated (HyClone Laboratories Inc., Logan, UT, cat. SH30070.03HI), 50% L-WRN conditioned media (ATCC, cat. CRL-3276), 1.25 mM N-Acetyl-L-cysteine (Sigma-Aldrich, cat. A9165), 10 mM nicotinamide (Sigma-Aldrich, cat. N0636), 1X B-27 supplement (Thermo Fisher Scientific, cat. 17504044), 1X N-2 supplement (Thermo Fisher Scientific, cat. […]
# 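Also: luminescence signal used as a surrogate for viable cells; spheroids exposed to drugs for seven days before readout.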
smiles,measurement,setting,value
C=CCn1c(=O)c2cnc(Nc3ccc(N4CCN(C)CC4)cc3)nc2n1-c1cccc(C(C)(C)O)n1,"viability, T/C",compound 0.00316 µM,98.4% and 90.3% and 83.5%
same,"viability, T/C",compound 0.01 µM,96.6% and 88.9% and 102%
same,"viability, T/C",compound 0.0316 µM,73.2% and 89.1% and 83.6%
same,"viability, T/C",compound 0.1 µM,94% and 101% and 86.6%
same,"viability, T/C",compound 0.316 µM,95.9% and 94.9% and 76.8%
same,"viability, T/C",compound 1 µM,74.5% and 63.4% and 69.5%
same,IC50,curve of compound,> 1 µM
Nc1ccc(C#CCN(C(=O)Cc2ncc(C(F)(F)F)cc2C(F)(F)F)c2ccc(F)cc2)nn1,"viability, T/C",compound 0.0316 µM,99.2% [middle of 13 runs]
same,"viability, T/C",compound 0.1 µM,97.2% [middle of 13 runs]
same,"viability, T/C",compound 0.316 µM,99.4% [middle of 13 runs]
same,"viability, T/C",compound 3.16 µM,98.6% [middle of 13 runs]
same,"viability, T/C",compound 10 µM,101% [middle of 13 runs]
same,IC50,"compound alone, run of 12/05/2023",> 10 µM
CC[C@@]1(O)C(=O)OCc2c1cc1n(c2=O)Cc2cc3c(CN(C)C)c(O)ccc3nc2-1,"viability, T/C",compound 0.000316 µM,100% and 93.8% and 93.3%
same,"viability, T/C",compound 0.001 µM,96.1% and 102% and 112%
same,"viability, T/C",compound 0.00316 µM,98.1% and 91.1% and 111%
same,"viability, T/C",compound 0.01 µM,105% and 101% and 97.3%
same,"viability, T/C",compound 0.0316 µM,94.5% and 75.5% and 93%
same,"viability, T/C",compound 0.1 µM,71.6% and 61.9% (2×)
same,IC50,curve of compound,> 0.1 µM
CC1COCCN1c1cc(C2(O)CC3CCC(C2)O3)c2cnn(-c3ccn[nH]3)c2n1 (configuration not stated) + Nc1ccc(C#CCN(C(=O)Cc2ncc(C(F)(F)F)cc2C(F)(F)F)c2ccc(F)cc2)nn1,IC50,"curve of first compound, second compound 0.0316 µM",1.7 µM
same,IC50,"curve of first compound, second compound 0.1 µM",> 10 µM
same,IC50,"curve of first compound, second compound 0.316 µM",> 10 µM
same,IC50,"curve of first compound, second compound 1 µM",6.2 µM
same,IC50,"curve of first compound, second compound 3.16 µM",3.16 µM
same,IC50,"curve of first compound, second compound 10 µM",> 10 µM
same,"viability, T/C","second compound 0.0316 µM, first compound 0.0316 µM",94.8%
same,"viability, T/C","second compound 0.0316 µM, first compound 0.1 µM",83.7%
same,"viability, T/C","second compound 0.0316 µM, first compound 0.316 µM",58.4%
same,"viability, T/C","second compound 0.0316 µM, first compound 1 µM",56.8%
same,"viability, T/C","second compound 0.0316 µM, first compound 3.16 µM",40.1%
same,"viability, T/C","second compound 0.0316 µM, first compound 10 µM",53.3%
same,"viability, T/C","second compound 0.1 µM, first compound 0.0316 µM",98.8%
same,"viability, T/C","second compound 0.1 µM, first compound 0.1 µM",73.5%
same,"viability, T/C","second compound 0.1 µM, first compound 0.316 µM",42.5%
same,"viability, T/C","second compound 0.1 µM, first compound 1 µM",72.8%
same,"viability, T/C","second compound 0.1 µM, first compound 3.16 µM",48%
same,"viability, T/C","second compound 0.1 µM, first compound 10 µM",64.5%
same,"viability, T/C","second compound 0.316 µM, first compound 0.0316 µM",93.2%
same,"viability, T/C","second compound 0.316 µM, first compound 0.1 µM",80.8%
same,"viability, T/C","second compound 0.316 µM, first compound 0.316 µM",49.9%
same,"viability, T/C","second compound 0.316 µM, first compound 1 µM",46.3%
same,"viability, T/C","second compound 0.316 µM, first compound 3.16 µM",51.4%
same,"viability, T/C","second compound 0.316 µM, first compound 10 µM",75.1%
same,"viability, T/C","second compound 1 µM, first compound 0.0316 µM",97.3%
same,"viability, T/C","second compound 1 µM, first compound 0.1 µM",69.4%
same,"viability, T/C","second compound 1 µM, first compound 0.316 µM",63.1%
same,"viability, T/C","second compound 1 µM, first compound 1 µM",47.6%
same,"viability, T/C","second compound 1 µM, first compound 3.16 µM",58.6%
same,"viability, T/C","second compound 1 µM, first compound 10 µM",44.7%
same,"viability, T/C","second compound 3.16 µM, first compound 0.0316 µM",82.4%
same,"viability, T/C","second compound 3.16 µM, first compound 0.1 µM",79.1%
same,"viability, T/C","second compound 3.16 µM, first compound 0.316 µM",42%
same,"viability, T/C","second compound 3.16 µM, first compound 1 µM",56.4%
same,"viability, T/C","second compound 3.16 µM, first compound 3.16 µM",42.8%
same,"viability, T/C","second compound 3.16 µM, first compound 10 µM",74.7%
same,"viability, T/C","second compound 10 µM, first compound 0.0316 µM",94%
same,"viability, T/C","second compound 10 µM, first compound 0.1 µM",79.9%
same,"viability, T/C","second compound 10 µM, first compound 0.316 µM",55.3%
same,"viability, T/C","second compound 10 µM, first compound 1 µM",52.2%
same,"viability, T/C","second compound 10 µM, first compound 3.16 µM",62%
same,"viability, T/C","second compound 10 µM, first compound 10 µM",65.2%
